Source: paper PMC7876005 (Communications Biology, 2021)
pKd: −log10 of the molar value. Where a SMILES comes first, the peptide text is derived from it.

What was measured:
Pgk1 = target: T1, Pgk1 (Saccharomyces cerevisiae, UniProt P00560); experiment: microscale thermophoresis
T1 sequence (P00560 2-416): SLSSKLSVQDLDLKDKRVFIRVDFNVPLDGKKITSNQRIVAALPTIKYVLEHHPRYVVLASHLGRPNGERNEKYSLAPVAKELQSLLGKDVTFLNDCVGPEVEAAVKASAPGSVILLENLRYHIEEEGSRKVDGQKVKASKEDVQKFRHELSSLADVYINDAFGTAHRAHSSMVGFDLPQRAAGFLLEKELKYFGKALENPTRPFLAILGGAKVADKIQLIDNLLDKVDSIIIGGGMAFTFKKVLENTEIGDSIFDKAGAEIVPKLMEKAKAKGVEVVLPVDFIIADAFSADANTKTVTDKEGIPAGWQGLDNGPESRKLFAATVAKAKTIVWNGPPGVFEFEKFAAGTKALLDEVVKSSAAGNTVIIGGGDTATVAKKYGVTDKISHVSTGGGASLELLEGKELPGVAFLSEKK

Pnp1 = target: T2, Pnp1 (Saccharomyces cerevisiae, UniProt Q05788); experiment: LC-MS assay of inosine conversion to hypoxanthine; assay type: biochemical
T2 construct: recombinant, overexpressed in yeast ORF collection strain (Dharmacon), purified; monomeric mass 33 kDa
T2 sequence (Q05788 2-311): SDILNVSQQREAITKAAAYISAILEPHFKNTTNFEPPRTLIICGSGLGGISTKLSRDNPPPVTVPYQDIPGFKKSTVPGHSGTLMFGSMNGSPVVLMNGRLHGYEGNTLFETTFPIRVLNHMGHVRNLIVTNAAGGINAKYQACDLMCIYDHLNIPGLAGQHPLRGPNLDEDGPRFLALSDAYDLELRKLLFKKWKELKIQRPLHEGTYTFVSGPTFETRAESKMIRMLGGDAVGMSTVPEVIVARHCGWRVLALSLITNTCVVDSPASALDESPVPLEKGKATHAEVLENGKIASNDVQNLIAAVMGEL

Row | Structure (SMILES) | pKd (Pgk1) | inhibition at 100 µM (Pnp1) [%]
1 | Nc1ncnc2c1ncn2[C@@H]1O[C@H](COP(=O)(O)OP(=O)(O)OP(=O)(O)O)[C@@H](O)[C@H]1O [ATP] | 3.91 | –
2 | CC(C)C[C@H](NC(=O)[C@@H](N)CO)C(=O)O [Ser-Leu] (H-Ser-Leu-OH) | 3.38 | –
3 | O=c1[nH]c(=O)c2[nH]cnc2[nH]1 [xanthine] | – | < 32
